# Patent US9725442B2, “Heterocyclic derivative having PGD2 receptor antagonist activity” (Shionogi & Co., Ltd., priority 2011, dated 2017)
# How the values were obtained:
# [1] = Metabolism stability test; type: in vitro ADME; details: human liver microsomes, 30 minutes, 37° C., NADPH, 0.5 μmol/L of the compound
# Experimental: Using a commercially available pooled human hepatic microsomes, a compound of the present invention was reacted for a constant time, a remaining rate was calculated by comparing a reacted sample and an unreacted sample, thereby, a degree of metabolism in liver was assessed.
# A reaction was performed (oxidative reaction) at 37° C. for 0 minute or 30 minutes in the presence of 1 mmol/L NADPH in 0.2 mL of a buffer (50 mmol/L Tris-HCl pH 7.4, 150 mmol/L potassium chloride, 10 mmol/L magnesium chloride) containing 0.5 mg protein/mL of human liver microsomes. After the reaction, 50 μL of the reaction mixture was added to 100 μL of a methanol/acetonitrile=1/1 (v/v), mixed and centrifuged at 3000 rpm for 15 minutes. The compound of the present invention in the supernatant was quantified by LC/MS/MS, and a remaining amount of the compound of the present invention after the reaction was calculated, letting a compound amount at 0 minute reaction time to be 100%. Glucuronidation reaction was in the presence of 5 mM UDP-glucuronic acid in place of NADPH, followed by similar operations.
# [2] = molecular target: CYP3A4 enzyme expressed in Escherichia coli (Homo sapiens (Human), UniProt P08684); experiment: CYP3A4 fluorescent MBI test; type: in vitro ADME; details: pre-reaction time 0 or 30 minutes, substrate 7-BFC; read-out: CYP3A4 MBI, difference between IC50 values with and without preincubation
# CYP3A4 enzyme expressed in Escherichia coli, sequence (P08684 whole entry): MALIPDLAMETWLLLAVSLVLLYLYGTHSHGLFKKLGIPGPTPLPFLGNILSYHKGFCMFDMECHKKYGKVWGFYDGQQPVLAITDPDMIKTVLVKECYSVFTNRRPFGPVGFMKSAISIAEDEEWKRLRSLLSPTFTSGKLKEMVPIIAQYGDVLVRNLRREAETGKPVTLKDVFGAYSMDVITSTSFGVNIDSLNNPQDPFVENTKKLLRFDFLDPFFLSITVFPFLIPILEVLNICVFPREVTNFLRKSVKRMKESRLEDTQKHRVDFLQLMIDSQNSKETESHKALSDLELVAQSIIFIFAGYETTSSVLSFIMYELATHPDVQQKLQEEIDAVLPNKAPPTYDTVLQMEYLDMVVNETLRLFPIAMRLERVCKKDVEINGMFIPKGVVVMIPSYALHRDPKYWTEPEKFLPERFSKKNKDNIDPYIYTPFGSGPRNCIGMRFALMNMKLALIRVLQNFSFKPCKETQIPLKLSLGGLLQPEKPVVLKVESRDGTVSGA
# Experimental: The CYP3A4 fluorescent MBI test is a test of investigating enhancement of CYP3A4 inhibition of a compound by a metabolism reaction, and the test was performed using, as CYP3A4 enzyme expressed in Escherichia coli and employing, as an index, a reaction in which 7-benzyloxytrifluoromethylcoumarin (7-BFC) is debenzylated by the CYP3A4 enzyme to produce a metabolite, 7-hydroxytrifluoromethylcoumarin (HFC) emitting fluorescent light.
# The reaction conditions were as follows: substrate, 5.6 μmol/L 7-BFC; pre-reaction time, 0 or 30 minutes; reaction time, 15 minutes; reaction temperature, 25° C. (room temperature); CYP3A4 content (expressed in Escherichia coli), at pre-reaction […], at reaction […] (at 10-fold dilution); concentration of a compound of the present, 0.625, 1.25, 2.5, 5, 10, 20 μmol/L (six points).
# An enzyme in a K-Pi buffer (pH 7.4) and a compound solution of the present invention as a pre-reaction mixture were added to a 96-well plate at the composition of the pre-reaction, a part of it was transferred to another 96-well plate so that it was 1/10 diluted by a substrate in a K-Pi buffer, NADPH as a co-factor was added to initiate a reaction as an index (without preincubation) and, after a predetermined time of a reaction, acetonitrile/0.5 mol/L Tris(trishydroxyaminomethane)=4/1 (V/V) was added to stop the reaction. In addition, NADPH was added to a remaining preincubation solution to initiate a preincubation (with preincubation) and, after a predetermined time of a preincubation, a part was transferred to another plate so that it was 1/10 diluted with a substrate and a K-Pi buffer to initiate a reaction as an index. After a predetermined time of a reaction, acetonitrile/0.5 mol/L Tris(trishydroxyaminomethane)=4/1 (V/V) was added to stop the reaction. For the plate on which each index reaction had been performed, a fluorescent value of 7-HFC which is a metabolite was measured with a fluorescent plate reader. (Ex=420 nm, Em=535 nm).
# [3] = Solubility test (1% DMSO addition, artificial intestinal juice pH 6.8); type: physicochemical; details: fassgf or other biorelevant, kinetic from dmso stock, artificial intestinal juice pH 6.8, 16 hours at 25° C.
# Experimental: A 10 mmol/L solution of the compound of the present invention is prepared with DMSO, and 6 μL of the compound solution is added to 594 μL of an artificial intestinal juice (water and 118 mL of 0.2 mol/L NaOH reagent are added to 250 mL of 0.2 mol/L potassium dihydrogen phosphate reagent to reach 1000 mL) with a pH of 6.8. The mixture is left standing for 16 hours at 25° C., and the mixture is vacuum-filtered. The filtrate is two-fold diluted with methanol/water=1/1 (V/V), and the compound concentration in the filtrate is measured with HPLC or LC/MS/MS by the absolute calibration method.
# [4] = molecular target: CYP2C19 (Homo sapiens (Human), UniProt P33261); experiment: CYP inhibition test, mephenyloin 4'-hydroxylation; type: in vitro ADME; details: pooled human hepatic microsome, 50 μmol/L S-mephenyloin
# CYP2C19, sequence (P33261 whole entry): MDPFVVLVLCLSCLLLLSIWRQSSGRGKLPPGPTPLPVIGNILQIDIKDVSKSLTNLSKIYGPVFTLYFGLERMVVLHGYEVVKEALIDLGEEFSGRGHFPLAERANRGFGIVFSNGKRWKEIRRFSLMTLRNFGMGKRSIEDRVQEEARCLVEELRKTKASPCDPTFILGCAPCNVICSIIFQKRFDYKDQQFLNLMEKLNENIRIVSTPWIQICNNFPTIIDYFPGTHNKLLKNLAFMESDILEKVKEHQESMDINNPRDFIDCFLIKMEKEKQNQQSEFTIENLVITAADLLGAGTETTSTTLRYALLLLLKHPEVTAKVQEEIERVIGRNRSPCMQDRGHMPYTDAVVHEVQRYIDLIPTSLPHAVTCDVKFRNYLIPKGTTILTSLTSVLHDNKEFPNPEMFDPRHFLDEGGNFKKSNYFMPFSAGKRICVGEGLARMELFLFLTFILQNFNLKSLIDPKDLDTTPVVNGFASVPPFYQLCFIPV
# From the text: (§1) Using commercially available pooled human hepatic microsome, and employing, as markers, 7-ethoxyresorufin O-deethylation (CYP1A2), tolbutamide methyl-hydroxylation (CYP2C9), mephenyloin 4′-hydroxylation (CYP2C19), dextromethorphan O-demethylation (CYP2D6), and terfenedine hydroxylation as typical substrate metabolism reactions of human main five CYP enzyme forms (CYP1A2, 2C9, 2C19, 2D6, 3A4), an inhibitory degree of each metabolite production amount by a compound of the present compound was assessed.
# (§2) The reaction conditions were as follows: substrate, 0.5 μmol/L ethoxyresorufin (CYP1A2), 100 μmol/L tolbutamide (CYP2C9), 50 μmol/L S-mephenyloin (CYP2C19), 5 μmol/L dextromethorphan (CYP2D6), 1 μmol/L terfenedine (CYP3A4); reaction time, 15 minutes; reaction temperature, 37° C.; enzyme, pooled human hepatic microsome 0.2 mg protein/mL; concentration of a compound of the present invention, 1, 5, 10, 20 μmol/L (four points).
# (§3) Each five kinds of substrates, human hepatic microsome, or a compound of the present invention in 50 mM Hepes buffer as a reaction mixture was added to a 96-well plate at the composition as described above, NADPH, as a cofactor was added to initiate metabolism reactions as markers and. After the incubation at 37° C. for 15 minutes, a methanol/acetonitrile=1/1 (v/v) solution was added to stop the reaction. After the centrifugation at 3000 rpm for 15 minutes, resorufin (CYP1A2 metabolite) in the supernatant was quantified by a fluorescent multilabel counter and tolbutamide hydroxide (CYP2C9 metabolite), mephenyloin 4′ hydroxide (CYP2C19 metabolite), dextrorphan (CYP2D6 metabolite), and terfenadine alcohol (CYP3A4 metabolite) were quantified by LC/MS/MS.
# [5] = molecular target: CYP1A2 (Homo sapiens (Human), UniProt P05177); experiment: CYP inhibition test, 7-ethoxyresorufin O-deethylation; type: in vitro ADME; details: pooled human hepatic microsome, 0.5 μmol/L ethoxyresorufin
# CYP1A2, sequence (P05177 whole entry): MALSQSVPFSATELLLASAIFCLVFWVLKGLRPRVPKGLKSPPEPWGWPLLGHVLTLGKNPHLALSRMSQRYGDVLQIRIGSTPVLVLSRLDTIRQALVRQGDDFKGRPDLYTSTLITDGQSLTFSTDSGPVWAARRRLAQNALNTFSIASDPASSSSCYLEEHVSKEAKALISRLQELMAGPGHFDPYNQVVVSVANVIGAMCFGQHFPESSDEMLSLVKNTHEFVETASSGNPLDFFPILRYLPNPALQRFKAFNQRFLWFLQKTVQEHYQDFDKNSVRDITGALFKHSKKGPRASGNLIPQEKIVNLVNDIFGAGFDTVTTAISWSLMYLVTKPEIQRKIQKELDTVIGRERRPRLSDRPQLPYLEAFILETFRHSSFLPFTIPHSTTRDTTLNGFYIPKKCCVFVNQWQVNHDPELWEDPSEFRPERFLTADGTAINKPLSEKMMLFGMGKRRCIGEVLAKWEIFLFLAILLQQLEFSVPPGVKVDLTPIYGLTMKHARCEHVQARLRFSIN
# From the text: as §1, §2, §3
# [6] = molecular target: Human DP1 receptor (Homo sapiens (Human), UniProt Q13258); experiment: Human DP1 inhibitory activity in DP1-expressing cell (PGD2-induced cAMP); type: cell-based
# Human DP1 receptor, sequence (Q13258 whole entry): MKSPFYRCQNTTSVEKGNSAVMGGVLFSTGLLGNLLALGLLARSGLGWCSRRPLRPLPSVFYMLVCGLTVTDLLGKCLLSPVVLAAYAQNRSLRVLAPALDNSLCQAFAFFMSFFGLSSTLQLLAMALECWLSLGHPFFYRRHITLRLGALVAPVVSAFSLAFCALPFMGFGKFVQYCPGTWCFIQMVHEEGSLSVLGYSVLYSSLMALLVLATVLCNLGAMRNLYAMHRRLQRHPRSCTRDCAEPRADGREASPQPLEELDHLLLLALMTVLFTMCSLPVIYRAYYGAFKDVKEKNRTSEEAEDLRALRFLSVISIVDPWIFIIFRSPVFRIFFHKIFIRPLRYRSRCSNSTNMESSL
# Experimental: Compounds were categorized as AA (cAMP is less than 100 nM) and A (cAMP is more than 100 nM and less than 5000 nM) as shown in Table 99 and 100.
# [7] = category of cAMP IC50, human DP1 receptor expressing Jurkut cell
# [8] = IC50 of PGD2 (60 nM)-induced cAMP increase, human DP1 receptor expressing Jurkut cell
Compound,remaining rate after reaction (result heading prints '% inhibition') [1],difference in IC50 with vs without preincubation [2],solubility at 16 h [3],IC50 [4],IC50 [5],"IC50 [6, 7]","IC50 [6, 8]"
CC(C)Oc1ccc(S(=O)(=O)N2C[C@@H](C)[C@@H](n3nc(CC(=O)O)c4ccc(F)cc43)C2)c(F)c1 [Compound I-52],97.2%,≤ 3 µM,> 50 µM,> 20 µM,> 20 µM,< 0.1 µM,–
CCOc1ccc(S(=O)(=O)N2C[C@@H](C)[C@@H](n3nc(CC(=O)O)c4ccccc43)C2)cn1 [Compound I-96],99.3%,≤ 3 µM,> 50 µM,> 20 µM,> 20 µM,< 0.1 µM,0.04 µM
CC(C)Oc1ccc(S(=O)(=O)N2C[C@@H](C)[C@@H](n3nc(CC(=O)O)c4ccc(F)cc43)C2)cc1 [Compound I-37],–,≤ 3 µM,> 50 µM,> 20 µM,> 20 µM,< 0.1 µM,0.01 µM
CC(C)Oc1ccc(S(=O)(=O)N2C[C@@H](C)[C@@H](n3nc(CC(=O)O)c4ccc(F)cc43)C2)cn1 [Compound I-57],86.9%,≤ 3 µM,> 50 µM,> 20 µM,> 20 µM,< 0.1 µM,–
CC(C)Oc1ccc(S(=O)(=O)N2C[C@H](n3nc(CC(=O)O)c4ccc(F)cc43)C[C@H]2C#N)cc1 [Compound I-7],–,≤ 3 µM,> 50 µM,> 20 µM,> 20 µM,< 0.1 µM,0.023 µM
